Several values for one entry are separate records, joined by “and”; a condition that tells them apart may be missing. Equal entries are not always repeated. Where two headings read alike, the source gives them in different places.
Experiments:
MCF7 breast cancer cells = conditions: read-out: IC50, mitochondrial oxygen consumption / cell growth; cited from earlier work
yeast F1Fo ATP synthase [1] = molecular target: T1, yeast F1Fo ATP synthase (Saccharomyces cerevisiae, UniProt P00854+P61829); assay: biochemical
[2] = test system: human mitochondrial ATP synthase; conditions: reviewer's remark; ref previous reports; read-out: IC50, ATPase activity of human mitochondrial ATP synthase; cited from earlier work
[3] = molecular target: yeast mitochondrial ATP synthase (Saccharomyces cerevisiae, UniProt P00854+P61829); assay: biochemical; conditions: for inhibition at 1 µM: read-out: % inhibition; for activity at 6 µM / inhibition at 6 µM: Bedaquiline 6 μM
yeast mitochondria = assay: Membrane potential of yeast mitochondria, fluorescence quenching of Rhodamine 123; assay type: biochemical, Saccharomyces cerevisiae; conditions: high concentrations
Description: The membrane potential was assessed by measuring fluorescence quenching of Rhodamine 123 at 488 nm excitation and 525 nm emission in a buffer containing 0.65 M mannitol, 20 mM bis-tris-propane, 2 mM tris-phosphate, 0.3 mM EGTA, pH 6.8 with Rhodamine 123 dissolved in methanol (1.0 µM). Yeast mitochondria were energized with ethanol (0.4% v/v), whereas human mitochondria were energized with glutamate/malate (5 mM/2.5 mM).

luciferase = luciferase (Photinus pyralis, UniProt P08659); assay type: biochemical
[4] = patients treated with Sirturo; placebo 2.5%; cited from earlier work
yeast F1Fo ATP synthase [5] = molecular target: T1, yeast F1Fo ATP synthase; assay: Single-particle cryo-EM of yeast F1Fo in nanodiscs with BDQ; assay type: binding
[6] = 1st exp (1-11-19), Bedaquiline 0.05 μM, frozen yeast mito, 60 min
[7] = 1st exp (1-11-19), Bedaquiline 0.1 μM, frozen yeast mito, 60 min
[8] = 1st exp (1-11-19), Bedaquiline 0.5 μM, frozen yeast mito, 60 min
[9] = 1st exp (1-11-19), Bedaquiline 1 μM, frozen yeast mito, 60 min
[10] = 1st exp (1-11-19), Bedaquiline 1.4 μM, frozen yeast mito, 60 min
[11] = 1st exp (1-11-19), Bedaquiline 2 μM, frozen yeast mito, 60 min
[12] = 1st exp (1-11-19), Bedaquiline 3 μM, frozen yeast mito, 60 min
[13] = 1st exp (1-11-19), Bedaquiline 4 μM, frozen yeast mito, 60 min
[14] = 1st exp (1-11-19), frozen yeast mito, 60 min
[15] = 2nd exp (1-29-19), Bedaquiline 0.005 μM (duplicate), frozen yeast mito, 60 min
[16] = 2nd exp (1-29-19), Bedaquiline 0.05 μM, frozen yeast mito, 60 min
[17] = 2nd exp (1-29-19), Bedaquiline 0.1 μM, frozen yeast mito, 60 min
[18] = 2nd exp (1-29-19), Bedaquiline 0.5 μM, frozen yeast mito, 60 min
[19] = 2nd exp (1-29-19), Bedaquiline 1 μM, frozen yeast mito, 60 min
[20] = 2nd exp (1-29-19), Bedaquiline 1.4 μM, frozen yeast mito, 60 min
[21] = 2nd exp (1-29-19), Bedaquiline 2 μM, frozen yeast mito, 60 min
[22] = 2nd exp (1-29-19), Bedaquiline 4 μM, frozen yeast mito, 60 min
[23] = 2nd exp (1-29-19), frozen yeast mito, 60 min
[24] = 3rd exp (2-1-19), Bedaquiline 0.005 μM, frozen yeast mito, 60 min
[25] = 3rd exp (2-1-19), Bedaquiline 0.05 μM, frozen yeast mito, 60 min
[26] = 3rd exp (2-1-19), Bedaquiline 0.1 μM, frozen yeast mito, 60 min
[27] = 3rd exp (2-1-19), Bedaquiline 0.5 μM, frozen yeast mito, 60 min
[28] = 3rd exp (2-1-19), Bedaquiline 1 μM, frozen yeast mito, 60 min
[29] = 3rd exp (2-1-19), Bedaquiline 1.4 μM, frozen yeast mito, 60 min
[30] = 3rd exp (2-1-19), Bedaquiline 2 μM, frozen yeast mito, 60 min
[31] = 3rd exp (2-1-19), Bedaquiline 4 μM, frozen yeast mito, 60 min
[32] = 3rd exp (2-1-19), frozen yeast mito, 60 min

Chain of luciferase (P08659 whole entry): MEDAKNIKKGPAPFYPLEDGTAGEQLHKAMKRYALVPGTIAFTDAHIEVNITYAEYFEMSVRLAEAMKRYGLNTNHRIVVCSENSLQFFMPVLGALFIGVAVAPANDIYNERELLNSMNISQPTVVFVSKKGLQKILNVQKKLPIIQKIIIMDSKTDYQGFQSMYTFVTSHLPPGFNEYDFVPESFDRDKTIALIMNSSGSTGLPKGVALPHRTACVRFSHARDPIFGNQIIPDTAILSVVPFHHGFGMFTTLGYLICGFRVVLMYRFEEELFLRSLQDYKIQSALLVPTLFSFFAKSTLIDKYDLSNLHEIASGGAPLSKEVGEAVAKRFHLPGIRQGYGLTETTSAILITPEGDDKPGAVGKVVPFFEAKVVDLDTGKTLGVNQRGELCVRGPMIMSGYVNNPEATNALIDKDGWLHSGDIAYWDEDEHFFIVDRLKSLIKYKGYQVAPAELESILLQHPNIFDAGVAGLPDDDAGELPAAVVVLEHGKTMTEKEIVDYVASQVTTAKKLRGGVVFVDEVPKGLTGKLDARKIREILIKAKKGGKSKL

In the case of `COc1nc2ccc(Br)cc2cc1[C@@H](c1ccccc1)[C@@](O)(CCN(C)C)c1cccc2ccccc12` [BDQ, Bedaquiline], the IC50 (MCF7 breast cancer cells) is given as about 1000 nM, the “Hillslope, four parameter logistic fit” value (yeast F1Fo ATP synthase [1]; BDQ, F1Fo in bicelles) is given as -1.0426 and the “max, four parameter logistic fit” value (yeast F1Fo ATP synthase [1]; BDQ, F1Fo in bicelles, […]) is given as 1.167. For the same molecule, the “min, four parameter logistic fit” value (yeast F1Fo ATP synthase [1]; BDQ, F1Fo in bicelles, […]) was 0.2116, the EC50 (yeast F1Fo ATP synthase [1]; BDQ, F1Fo in bicelles, x in µM BDQ, read-out: EC50, four parameter logistic fit (coefficient) (converted)) was 0.0272 µM and the “ATP hydrolysis activity (ΔA340nm), Exp 1-3” value (yeast F1Fo ATP synthase [1]; F1Fo in bicelles, BDQ 0.0246 uM) was 0.6436 and 0.6522 and 0.6471. The “ATP hydrolysis activity (ΔA340nm), Exp 1-3” value (yeast F1Fo ATP synthase [1]; F1Fo in bicelles, BDQ 0.0372 uM) was 0.615 and 0.6977 and 0.5128, the “ATP hydrolysis activity (ΔA340nm), Exp 1-3” value (yeast F1Fo ATP synthase [1]; F1Fo in bicelles, BDQ 0.0744 uM) was 0.5405 and 0.4979 and 0.4346 and the “ATP hydrolysis activity (ΔA340nm), Exp 1-3” value (yeast F1Fo ATP synthase [1]; F1Fo in bicelles, BDQ 0.25 uM) was 0.379 and 0.272 and 0.2957. For the same molecule, the “ATP hydrolysis activity (ΔA340nm), Exp 1-3” value (yeast F1Fo ATP synthase [1]; F1Fo in bicelles, BDQ 0.37 uM) was 0.3688 and 0.2428 and 0.2764, the “ATP hydrolysis activity (ΔA340nm), Exp 1-3” value (yeast F1Fo ATP synthase [1]; F1Fo in bicelles, BDQ 0.74 uM) was 0.2533 and 0.2466 and 0.2454 and the “ATP hydrolysis activity (ΔA340nm), Exp 1-3” value (yeast F1Fo ATP synthase [1]; F1Fo in bicelles, BDQ 1.49 uM) was 0.2105 and 0.2204 and 0.2061. The “ATP hydrolysis activity (ΔA340nm), Exp 1-3” value (yeast F1Fo ATP synthase [1]; F1Fo in bicelles, BDQ 3.72 uM) was 0.2216 and 0.2051 and 0.1755, the “ATP hydrolysis activity (ΔA340nm), Exp 1-3” value (yeast F1Fo ATP synthase [1]; F1Fo in bicelles, BDQ 7.44 uM) was 0.2035 and 0.2344 and 0.1804 and the “ATP hydrolysis activity (ΔA340nm), Exp 1-3” value (yeast F1Fo ATP synthase [1]; F1Fo in bicelles, BDQ 18.61 uM) was 0.2777 and 0.1895 and 0.1989. The “ATP hydrolysis activity (ΔA340nm), Exp 1-3” value (yeast F1Fo ATP synthase [1]; F1Fo in bicelles, BDQ 37.22 uM) was 0.2178 and 0.2279 and 0.1889, the “ATP hydrolysis activity (ΔA340nm), Exp 1-3” value (yeast F1Fo ATP synthase [1]; F1Fo in bicelles, BDQ 52.11 uM) was 0.1835 and 0.2422 and 0.1841 and the “ATP hydrolysis activity (ΔA340nm), Exp 1-3” value (yeast F1Fo ATP synthase [1]; F1Fo in bicelles, BDQ 74.45 uM) was 0.1959 and 0.193 and 0.2223. For the same molecule, the “inhibition of ATP hydrolysis by yeast F1Fo (extent)” value (yeast F1Fo ATP synthase [1]; F1Fo in bicelles, maximal) was about 85%, the IC50 (yeast F1Fo ATP synthase [1]; F1Fo in bicelles, n = 3, read-out: IC50 ± SEM, ATP hydrolysis, purified yeast F1Fo) was 27 ± 2.5 nM and the IC50 (yeast F1Fo ATP synthase [1]; F1Fo in bicelles, read-out: IC50, ATP hydrolysis, purified yeast F1Fo) was about 25 nM. The EC50 (yeast F1Fo ATP synthase [1]; reconstituted in bicelles, n = 3, read-out: EC50, inhibition of the ATPase activity of purified yeast ATP synthase) was 0.027 ± 0.0025 µM, the IC50 [2] was 200000 nM and the “Cyanide sensitive ATP synthesis” value [3, 6] was 49.0688 nmol/min/mg. The activity at 0.05 µM [3, 6] was 106%, the inhibition at 0.05 µM [3, 6] was -6.06% and the “Cyanide sensitive ATP synthesis” value [3, 7] was 39.561 nmol/min/mg. For the same molecule, the activity at 0.1 µM [3, 7] was 85.5%, the inhibition at 0.1 µM [3, 7] was 14.5% and the “Cyanide sensitive ATP synthesis” value [3, 8] was 35.6774 nmol/min/mg. The activity at 0.5 µM [3, 8] was 77.1%, the inhibition at 0.5 µM [3, 8] was 22.9% and the “Cyanide sensitive ATP synthesis” value [3, 9] was 21.3622 nmol/min/mg. The activity at 1 µM [3, 9] was 46.2%, the inhibition at 1 µM [3, 9] was 53.8% and the “Cyanide sensitive ATP synthesis” value [3, 10] was 15.4854 nmol/min/mg. For the same molecule, the activity at 1.4 µM [3, 10] was 33.5%, the inhibition at 1.4 µM [3, 10] was 66.5% and the “Cyanide sensitive ATP synthesis” value [3, 11] was 8.026 nmol/min/mg. The activity at 2 µM [3, 11] was 17.3%, the inhibition at 2 µM [3, 11] was 82.7% and the “Cyanide sensitive ATP synthesis” value [3, 12] was 3.204 nmol/min/mg. The activity at 3 µM [3, 12] was 6.92%, the inhibition at 3 µM [3, 12] was 93.1% and the “Cyanide sensitive ATP synthesis” value [3, 13] was 1.232 nmol/min/mg. It also gave an activity at 4 µM [3, 13] of 2.66%, an inhibition at 4 µM [3, 13] of 97.3% and an activity at 6 µM [3, 14] of 1.64%. For the same molecule, the inhibition at 6 µM [3, 14] was 98.4%, the “% activity” value [3, 15] was 96.7896% and the “% inhibition” value [3, 15] was -3.9401% and 3.21%. For the same molecule, the “Cyanide sensitive ATP synthesis” value [3, 15] was 54.583 nmol/min/mg and 50.828 nmol/min/mg, the activity at 0.005 µM [3, 15] was 104% and the “Cyanide sensitive ATP synthesis” value [3, 16] was 50.1533 nmol/min/mg. The activity at 0.05 µM [3, 16] was 95.5%, the inhibition at 0.05 µM [3, 16] was 4.5% and the “Cyanide sensitive ATP synthesis” value [3, 17] was 50.0836 nmol/min/mg. For the same molecule, the activity at 0.1 µM [3, 17] was 95.4%, the inhibition at 0.1 µM [3, 17] was 4.63% and the “Cyanide sensitive ATP synthesis” value [3, 18] was 46.4023 nmol/min/mg. For the same molecule, the activity at 0.5 µM [3, 18] was 88.4%, the inhibition at 0.5 µM [3, 18] was 11.6% and the “Cyanide sensitive ATP synthesis” value [3, 19] was 33.1052 nmol/min/mg. For the same molecule, the activity at 1 µM [3, 19] was 63%, the inhibition at 1 µM [3, 19] was 37% and the “Cyanide sensitive ATP synthesis” value [3, 20] was 15.7394 nmol/min/mg. The activity at 1.4 µM [3, 20] was 30%, the inhibition at 1.4 µM [3, 20] was 70% and the “Cyanide sensitive ATP synthesis” value [3, 21] was 6.265 nmol/min/mg. The activity at 2 µM [3, 21] was 11.9%, the inhibition at 2 µM [3, 21] was 88.1% and the activity at 4 µM [3, 22] was 1.16%. The inhibition at 4 µM [3, 22] was 98.8%, the activity at 6 µM [3, 23] was 0.645% and the inhibition at 6 µM [3, 23] was 99.4%. For the same molecule, the “Cyanide sensitive ATP synthesis” value [3, 24] was 55.7209 nmol/min/mg, the activity at 0.005 µM [3, 24] was 101% and the inhibition at 0.005 µM [3, 24] was -1.01%. For the same molecule, the “Cyanide sensitive ATP synthesis” value [3, 25] was 53.0953 nmol/min/mg, the activity at 0.05 µM [3, 25] was 96.2% and the inhibition at 0.05 µM [3, 25] was 3.75%. For the same molecule, the “Cyanide sensitive ATP synthesis” value [3, 26] was 53.6873 nmol/min/mg, the activity at 0.1 µM [3, 26] was 97.3% and the inhibition at 0.1 µM [3, 26] was 2.68%. For the same molecule, the “Cyanide sensitive ATP synthesis” value [3, 27] was 38.5022 nmol/min/mg, the activity at 0.5 µM [3, 27] was 69.8% and the inhibition at 0.5 µM [3, 27] was 30.2%. For the same molecule, the “Cyanide sensitive ATP synthesis” value [3, 28] was 33.4087 nmol/min/mg, the activity at 1 µM [3, 28] was 60.6% and the inhibition at 1 µM [3, 28] was 39.4%. The “Cyanide sensitive ATP synthesis” value [3, 29] was 18.8899 nmol/min/mg, the activity at 1.4 µM [3, 29] was 34.2% and the inhibition at 1.4 µM [3, 29] was 65.8%. The “Cyanide sensitive ATP synthesis” value [3, 30] was 16.8178 nmol/min/mg, the activity at 2 µM [3, 30] was 30.5% and the inhibition at 2 µM [3, 30] was 69.5%. The “Cyanide sensitive ATP synthesis” value [3, 31] was 2.063 nmol/min/mg, the activity at 4 µM [3, 31] was 3.74% and the inhibition at 4 µM [3, 31] was 96.3%. For the same molecule, the activity at 6 µM [3, 32] was 1.81%, the inhibition at 6 µM [3, 32] was 98.2% and the IC50 ([3]; IC50 ± SEM, ATP synthesis, yeast mitochondria) was 1100 nM and ~1100 nM. The “effect on membrane potential, yeast mitochondria” value (yeast mitochondria) was “partial effect”, the “effect on the activity of luciferase” value (luciferase) was “did not affect” and the risk of death [4] was 11.4%. The “binding to F1 by cryo-EM density” value (yeast F1Fo ATP synthase [5]; F1Fo map 3.9 Å) was “not bound to F1” and the “binding site by cryo-EM density” value (yeast F1Fo ATP synthase [5]; Fo map 4.2 Å) was “at the interface between the a- and c-subunits”.

Reference: paper PMC7438494 (Communications Biology, 2020)
